# Experiments:
# IDO [1] = biological target: T1, IDO (Homo sapiens, UniProt P14902); assay: SKOV3 kynurenine cell-based assay (IDO induced by IFN-γ); set-up: IDO expression was induced in the SKOV3 cells by the addition of 500 ng/ml IFN-γ; endogenous in cells; host or cells: SKOV3 (human ovarian adenocarcinoma), induced with IFN-γ; details: SKOV3 human ovarian adenocarcinoma cells, 500 ng/ml IFN-γ, 48 hours, 500 μM L-tryptophan; read-out: SKOV3 Kynurenine cell based assay pIC50 (converted)
# Method in brief: (§1)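 Cellular kynurenine production, TDO via A172 glioblastoma and IDO via IFN-γ-stimulated SKOV3 ovarian adenocarcinoma cells, was quantified after 48 hours' compound treatment in 500 μM L-tryptophan medium, using Erhlich's reagent and absorbance at 490 nm.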
# TDO [2] = biological target: T2, TDO (Homo sapiens, UniProt P48775); assay: hTDO biochemical coupled assay; details: 330 μM L-tryptophan, 17 minutes, room temperature; read-out: hTDO biochemical assay pIC50 (converted)
# IDO [3] = biological target: T1, IDO; assay: hIDO biochemical coupled assay; details: 45 μM L-tryptophan, 17 minutes, room temperature; read-out: hIDO biochemical assay pIC50 (converted)
# TDO [4] = biological target: T2, TDO; assay: A172 kynurenine cell-based assay; set-up: This assay utilised cancer cells which expressed either TDO or IDO; endogenous in cells; host or cells: A172 (human glioblastoma); details: A172 human glioblastoma cells, 48 hours, 500 μM L-tryptophan; read-out: A172 Kynurenine cell based assay pIC50 (converted)
# Method in brief: as §1
# T2 sequence (P48775 whole entry): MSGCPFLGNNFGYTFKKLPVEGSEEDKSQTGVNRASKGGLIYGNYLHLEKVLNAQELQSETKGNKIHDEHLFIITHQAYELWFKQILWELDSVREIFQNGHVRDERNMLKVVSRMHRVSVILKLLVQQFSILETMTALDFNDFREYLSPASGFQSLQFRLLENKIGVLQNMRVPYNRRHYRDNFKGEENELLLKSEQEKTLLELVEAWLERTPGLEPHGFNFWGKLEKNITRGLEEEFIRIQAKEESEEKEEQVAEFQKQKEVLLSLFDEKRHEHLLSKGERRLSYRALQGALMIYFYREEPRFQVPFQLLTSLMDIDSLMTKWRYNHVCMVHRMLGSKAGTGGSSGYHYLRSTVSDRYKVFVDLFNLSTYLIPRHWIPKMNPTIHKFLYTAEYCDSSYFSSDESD
# T1 sequence (P14902 whole entry): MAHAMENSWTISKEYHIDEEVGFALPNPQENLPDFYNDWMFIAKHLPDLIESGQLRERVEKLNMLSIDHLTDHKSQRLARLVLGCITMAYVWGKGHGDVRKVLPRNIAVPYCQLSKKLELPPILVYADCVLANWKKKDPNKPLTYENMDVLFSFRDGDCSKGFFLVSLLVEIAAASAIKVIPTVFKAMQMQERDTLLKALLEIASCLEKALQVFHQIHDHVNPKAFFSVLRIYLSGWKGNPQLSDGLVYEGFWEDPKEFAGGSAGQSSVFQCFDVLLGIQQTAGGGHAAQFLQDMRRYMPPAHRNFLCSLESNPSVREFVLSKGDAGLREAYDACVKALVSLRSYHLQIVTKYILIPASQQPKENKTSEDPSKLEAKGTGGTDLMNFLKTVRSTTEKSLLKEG
SMILES,IC50 (IDO [1]) [µM],IC50 (TDO [2]) [µM],IC50 (IDO [3]) [µM],IC50 (TDO [4]) [µM]
CS(=O)(=O)N1CCN(c2cc(Cl)cc3c(N)noc23)CC1 [Compound 302],3.24 to 31.6,> 100,> 100,3.24 to 31.6
CC(=O)N1CCN(c2cc(Cl)cc3c(N)noc23)CC1 [Compound 303],> 100,> 100,> 100,3.24 to 31.6
Clc1cc(N2CCc3ccccc3C2)c2cn[nH]c2c1 [Compound 304],32.4 to 100,< 3.16,> 100,< 3.16
CC(=O)N1CCN(c2cc(Cl)cc3c(N)noc23)CC1(C)C [Compound 305],32.4 to 100,32.4 to 100,> 100,3.24 to 31.6
CS(=O)(=O)N1CCN(c2cc(Cl)cc3c(N)n[nH]c23)CC1 [Compound 306],3.24 to 31.6,> 100,> 100,3.24 to 31.6
CC(=O)N1CCN(c2cc(Cl)cc3c(N)n[nH]c23)CC1(C)C [Compound 307],3.24 to 31.6,< 3.16,< 3.16,> 100
Clc1cc(N2CCCCC2)c2cn[nH]c2c1 [Compound 308],> 100,3.24 to 31.6,32.4 to 100,< 3.16
Clc1cc(N2CCN(c3ncccn3)CC2)c2cn[nH]c2c1 [Compound 309],> 100,3.24 to 31.6,> 100,< 3.16
CN(c1cc(N2CCN(S(C)(=O)=O)C(C)(C)C2)c2cn[nH]c2c1)S(C)(=O)=O [Compound 310],> 100,> 100,> 100,32.4 to 100
CC(=O)N(C)c1cc(N2CCN(S(C)(=O)=O)C(C)(C)C2)c2cn[nH]c2c1 [Compound 311],3.24 to 31.6,32.4 to 100,> 100,3.24 to 31.6
CC(=O)Nc1cc(N2CCN(S(C)(=O)=O)C(C)(C)C2)c2cn[nH]c2c1 [Compound 312],> 100,> 100,> 100,3.24 to 31.6
Clc1cc(N2CCC(c3nccs3)CC2)c2cn[nH]c2c1 [Compound 313],3.24 to 31.6,< 3.16,3.24 to 31.6,< 3.16
CS(=O)(=O)N1C2COCC1CN(c1cc(Cl)cc3[nH]ncc13)C2 [Compound 314],32.4 to 100,< 3.16,32.4 to 100,< 3.16
CCN1C(=O)NC2(CCN(c3cc(Cl)cc4[nH]ncc34)CC2)C1=O [Compound 315],< 3.16,< 3.16,< 3.16,< 3.16
CC(C)N1C(=O)NC2(CCN(c3cc(Cl)cc4[nH]ncc34)CC2)C1=O [Compound 316],3.24 to 31.6,< 3.16,3.24 to 31.6,< 3.16
CC1(C)CN(c2cc(Cl)cc3c(N)noc23)CCN1S(C)(=O)=O [Compound 317],32.4 to 100,3.24 to 31.6,> 100,> 100
O=C1CN(c2cc(Cl)cc3[nH]ncc23)CCN1 [Compound 318],> 100,3.24 to 31.6,> 100,3.24 to 31.6
OC1(c2cc(Cl)cc3[nH]ncc23)CCOCC1 [Compound 319],32.4 to 100,< 3.16,3.24 to 31.6,< 3.16
OC1(c2cc(Cl)cc3[nH]ncc23)CCCC1 [Compound 320],3.24 to 31.6,< 3.16,3.24 to 31.6,< 3.16
CC1(C)CN(c2cc(Cl)cc3c(N)n[nH]c23)CCN1S(C)(=O)=O [Compound 321],3.24 to 31.6,> 100,> 100,3.24 to 31.6
CC(=O)N1CCN(c2cc(Cl)cc3c(N)n[nH]c23)CC1 [Compound 322],3.24 to 31.6,> 100,> 100,3.24 to 31.6
CC(=O)N1CCN(c2cc(C#N)cc3[nH]ncc23)CC1 [Compound 323],32.4 to 100,> 100,> 100,32.4 to 100
Clc1cc(N2CCN(c3ccccn3)CC2)c2cn[nH]c2c1 [Compound 324],3.24 to 31.6,< 3.16,> 100,< 3.16
CS(=O)(=O)N1CCC(c2cc(C3CCOCC3)cc3[nH]ncc23)CC1 [Compound 325],32.4 to 100,> 100,> 100,32.4 to 100

SMILES,IC50 (IDO [1]) [µM],IC50 (TDO [2]) [µM],IC50 (IDO [3]) [µM],IC50 (TDO [4]) [µM]
CCc1cc(C2CCN(S(C)(=O)=O)CC2)c2cn[nH]c2c1 [Compound 326],3.24 to 31.6,< 3.16,3.24 to 31.6,3.24 to 31.6
Clc1cc(N2CCOCC2)c2cn[nH]c2c1 [Compound 327],3.24 to 31.6,3.24 to 31.6,> 100,3.24 to 31.6
Clc1cc(N2CCc3[nH]ncc3C2)c2cn[nH]c2c1 [Compound 328],3.24 to 31.6,< 3.16,> 100,< 3.16
O=C1NC2(CCN(c3cc(Cl)cc4[nH]ncc34)CC2)C(=O)N1CCO [Compound 330],< 3.16,< 3.16,< 3.16,< 3.16
O=C1NC2(CCN(c3cc(Cl)cc4[nH]ncc34)CC2)C(=O)N1Cc1ccccc1 [Compound 331],< 3.16,< 3.16,< 3.16,< 3.16
CN1CCN(c2cc(Cl)cc3[nH]ncc23)CC1=O [Compound 332],> 100,< 3.16,> 100,< 3.16
CS(=O)(=O)N1CCC(C(O)c2cc(Cl)cc3[nH]ncc23)CC1 (stereo not drawn) [Compound 333],32.4 to 100,< 3.16,> 100,3.24 to 31.6
CC1(C)CN(c2cc(C#N)cc3[nH]ncc23)CCN1S(C)(=O)=O [Compound 334],3.24 to 31.6,< 3.16,< 3.16,< 3.16
CC(=O)NC1CCN(c2cc(Cl)cc3[nH]ncc23)CC1(C)C (stereo not drawn) [Compound 335],3.24 to 31.6,< 3.16,3.24 to 31.6,< 3.16
CC1(C)CN(c2cc(Cl)cc3[nH]ncc23)CCC1NS(C)(=O)=O (stereo not drawn) [Compound 336],3.24 to 31.6,< 3.16,3.24 to 31.6,< 3.16
CC(=O)N(C)c1cc(C2CCN(S(C)(=O)=O)CC2)c2cn[nH]c2c1 [Compound 337],3.24 to 31.6,> 100,> 100,> 100
CN(c1cc(C2CCN(S(C)(=O)=O)CC2)c2cn[nH]c2c1)S(C)(=O)=O [Compound 338],> 100,> 100,> 100,3.24 to 31.6
Clc1cc(N2CCC(n3cccn3)CC2)c2cn[nH]c2c1 [Compound 339],3.24 to 31.6,< 3.16,< 3.16,< 3.16
CS(=O)(=O)N1CCN(c2cc(C(F)(F)F)cc3[nH]ncc23)C2CCCCC21 (stereo not drawn) [Compound 340],32.4 to 100,> 100,> 100,3.24 to 31.6
CS(=O)(=O)Nc1ccc2c(c1)CCN(c1cc(Cl)cc3[nH]ncc13)C2 [Compound 342],3.24 to 31.6,< 3.16,> 100,< 3.16
Clc1cc(N2CCc3cnccc3C2)c2cn[nH]c2c1 [Compound 343],32.4 to 100,< 3.16,> 100,< 3.16
O=C1NCC2(CCN(c3cc(Cl)cc4[nH]ncc34)CC2)O1 [Compound 344],3.24 to 31.6,< 3.16,3.24 to 31.6,< 3.16
Clc1cc(N2CC=CCC2)c2cn[nH]c2c1 [Compound 345],3.24 to 31.6,< 3.16,3.24 to 31.6,< 3.16
Clc1cc(N2CCc3ccncc3C2)c2cn[nH]c2c1 [Compound 346],3.24 to 31.6,< 3.16,> 100,< 3.16
CS(=O)(=O)N1CCC(n2cc(-c3cc(Cl)cc4[nH]ncc34)cn2)CC1 [Compound 347],3.24 to 31.6,< 3.16,> 100,< 3.16
CC(=O)N1CCC(n2cc(-c3cc(Cl)cc4[nH]ncc34)cn2)CC1 [Compound 348],3.24 to 31.6,< 3.16,> 100,< 3.16
CS(=O)(=O)N1CCC2(CCN(c3cc(Cl)cc4[nH]ncc34)CC2)C1 [Compound 349],32.4 to 100,< 3.16,32.4 to 100,< 3.16
CC(=O)N1CCC2(CCN(c3cc(Cl)cc4[nH]ncc34)CC2)C1 [Compound 350],3.24 to 31.6,< 3.16,32.4 to 100,< 3.16
CS(=O)(=O)N1CC2(CCN(c3cc(Cl)cc4[nH]ncc34)CC2)C1 [Compound 351],3.24 to 31.6,< 3.16,32.4 to 100,< 3.16

# From patent publication US10590086B2, “Pharmaceutical compound” (IOmet Pharma Ltd., priority 2014, dated 2020)
